Laboratory results: BindingDB's records for doi:10.1016/S0960-894X(01)80879-9 (1993)
Structures can show the parent of a compound that is named as a salt.

Experiments:
[1] = Binding affinity for dopamine receptor D2 in guinea pig striatal membrane using radiolabeled ligand [3H]spiperone
[2] = biological target: Sigma-1 receptor (Cavia porcellus); assay: Binding affinity for sigma receptor in guinea pig brain membrane using radiolabeled ligand [3H]-(+)-SKF- 10,047 was determined

Structure (SMILES)	Ki [1] [nM]	Ki [2] [nM]
O=C1C(c2ccccc2)=COC12CCN(Cc1cccc(Cl)c1)CC2 [8-(3-Chloro-benzyl)-3-phenyl-1-oxa-8-aza-spiro[4.5]dec-2-en-4-one; hydrochloride]	2110	232
Cc1cc(CN2CCC3(CC2)OC=C(c2ccccc2)C3=O)on1 [8-(3-Methyl-isoxazol-5-ylmethyl)-3-phenyl-1-oxa-8-aza-spiro[4.5]dec-2-en-4-one; hydrochloride]	32000	7500
O=C1C(c2ccc(F)cc2)=COC12CCN(Cc1ccccc1)CC2 [8-Benzyl-3-(4-fluoro-phenyl)-1-oxa-8-aza-spiro[4.5]dec-2-en-4-one; hydrochloride]	1420	
O=C(CCCN1CCCC2(C1)OC(c1ccccc1)=CC2=O)c1ccc(F)cc1 (configuration not stated) [7-[4-(4-Fluoro-phenyl)-4-oxo-butyl]-2-phenyl-1-oxa-7-aza-spiro[4.5]dec-2-en-4-one; hydrochloride]	152	384
O=C1C(c2ccccc2)=COC12CCN(CC1CCCCC1)CC2 [8-Cyclohexylmethyl-3-phenyl-1-oxa-8-aza-spiro[4.5]dec-2-en-4-one; hydrochloride]	642	1
O=C1C=C(c2ccccc2)OC12CCCN(Cc1ccccc1)C2 (configuration not stated) [7-Benzyl-2-phenyl-1-oxa-7-aza-spiro[4.5]dec-2-en-4-one; hydrochloride]	> 10000	4520
CCN(CC)CCC1(C)OC=C(c2ccccc2)C1=O (configuration not stated) [2-(2-Diethylamino-ethyl)-2-methyl-4-phenyl-furan-3-one; hydrochloride]	10000	9
CN1CCC2(CC1)OC(C)(c1ccccc1)CC2=O (configuration not stated) [2,8-Dimethyl-2-phenyl-1-oxa-8-aza-spiro[4.5]decan-4-one; compound with (E)-but-2-enedioic acid]	10000	214
CCN(CC)CCCC1(C)OC=C(c2ccccc2)C1=O (configuration not stated) [2-(3-Diethylamino-propyl)-2-methyl-4-phenyl-furan-3-one; hydrochloride]	> 10000	16
O=C1C=C(c2ccccc2)OC12CCNCC2 [2-Phenyl-1-oxa-8-aza-spiro[4.5]dec-2-en-4-one; hydrochloride]	> 10000	462
O=C1C(c2ccccc2)=COC12CCN(Cc1ccc(F)cc1)CC2 [8-(4-Fluoro-benzyl)-3-phenyl-1-oxa-8-aza-spiro[4.5]dec-2-en-4-one; hydrochloride]	2420	3
CN(C)CCC1(c2ccccc2)OC=C(c2ccccc2)C1=O (configuration not stated) [2-(2-Dimethylamino-ethyl)-2,4-diphenyl-furan-3-one; hydrochloride]	2690	223
CCN(CC)CCC1(C)OC(c2ccccc2)=CC1=O (configuration not stated) [2-(2-Diethylamino-ethyl)-2-methyl-5-phenyl-furan-3-one; hydrochloride]	> 10000	44
CN1CCC2(CC1)OC=C(c1ccc(F)cc1)C2=O [3-(4-Fluoro-phenyl)-8-methyl-1-oxa-8-aza-spiro[4.5]dec-2-en-4-one; hydrochloride]	2600	4000
O=C(CCCN1CCC2(CC1)OC=C(c1ccccc1)C2=O)c1ccc(F)cc1 [8-[4-(4-Fluoro-phenyl)-4-oxo-butyl]-3-phenyl-1-oxa-8-aza-spiro[4.5]dec-2-en-4-one; hydrochloride]	70	17
O=C1C(c2ccc(F)cc2)=COC12CCN(CC1CCCCC1)CC2 [8-Cyclohexylmethyl-3-(4-fluoro-phenyl)-1-oxa-8-aza-spiro[4.5]dec-2-en-4-one; hydrochloride]	962	2
COc1ccc(C2=COC3(CCN(CCc4ccccc4)CC3)C2=O)cc1 [3-(4-Methoxy-phenyl)-8-phenethyl-1-oxa-8-aza-spiro[4.5]dec-2-en-4-one; hydrochloride]	2070	30
O=C1C(c2ccccc2)=COC12CCN(Cc1ccccc1)CC2 [8-Benzyl-3-phenyl-1-oxa-8-aza-spiro[4.5]dec-2-en-4-one; hydrochloride]	2370	4
O=C1C(c2ccccc2)=COC12CCN(Cc1ccccc1)C2 (configuration not stated) [7-Benzyl-3-phenyl-1-oxa-7-aza-spiro[4.4]non-2-en-4-one; hydrochloride]	20000	32
CN1CCC2(CC1)OC=C(c1ccccc1)C2=O [8-Methyl-3-phenyl-1-oxa-8-aza-spiro[4.5]dec-2-en-4-one; hydrochloride]	> 10000	580
CN1CCC2(CC1)OC(c1ccccc1)=CC2=O [8-Methyl-2-phenyl-1-oxa-8-aza-spiro[4.5]dec-2-en-4-one; hydrochloride]	2900	298
O=C1C=C(c2ccc(F)cc2)OC12CCN(CCc1ccccc1)CC2 [2-(4-Fluoro-phenyl)-8-phenethyl-1-oxa-8-aza-spiro[4.5]dec-2-en-4-one; hydrochloride]	5320	6
O=C1C(c2ccc3ccccc3c2)=COC12CCN(CCc1ccccc1)CC2 [3-Naphthalen-2-yl-8-phenethyl-1-oxa-8-aza-spiro[4.5]dec-2-en-4-one; hydrochloride]	3130	35
O=C1C(c2ccccc2)=COC12CCNCC2 [3-Phenyl-1-oxa-8-aza-spiro[4.5]dec-2-en-4-one; hydrochloride]	10000	6220
O=C1C=C(c2ccccc2)OC12CCN(Cc1ccccc1)CC2 [8-Benzyl-2-phenyl-1-oxa-8-aza-spiro[4.5]dec-2-en-4-one; hydrochloride]	> 10000	1
O=C1C(c2ccc(F)cc2)=COC12CCN(CCc1ccccc1)CC2 [3-(4-Fluoro-phenyl)-8-phenethyl-1-oxa-8-aza-spiro[4.5]dec-2-en-4-one; hydrochloride]	217	24
O=C1C(c2ccccc2)=COC12CCCN(Cc1ccccc1)C2 (configuration not stated) [7-Benzyl-3-phenyl-1-oxa-7-aza-spiro[4.5]dec-2-en-4-one; hydrochloride]	> 10000	695
C=CCN1CCC2(CC1)OC=C(c1ccccc1)C2=O [8-Allyl-3-phenyl-1-oxa-8-aza-spiro[4.5]dec-2-en-4-one; hydrochloride]	4870	163
O=C1C=C(c2ccccc2)OC12CCN(CCc1ccccc1)CC2 [8-Phenethyl-2-phenyl-1-oxa-8-aza-spiro[4.5]dec-2-en-4-one; hydrochloride]	7180	1
